Where a SMILES comes first, the peptide text is derived from it. The star is where a group is joined. Stearoyl = CCCCCCCCCCCCCCCCCC(=O)*
Key:
[1] = system: healthy human osteoblasts; assay: MTT cytotoxicity assay; conditions: human osteoblast cell line, highest concentration investigated, 24 hours, serum-free medium
Method: (§1) MG-63 osteosarcoma (CRL-1427) cells (American Type Culture Collection) were cultured in Eagle's Minimum Essential Medium supplemented with 10% fetal bovine serum and 1% penicillin/streptomycin, while healthy human osteoblasts (C-12760, PromoCell) were cultured in complete growth medium composed of osteoblast basal medium and osteoblast growth medium Supplement Mix. Both cell lines were incubated at 37° C. in a humidified incubator with an atmosphere of 95% […] and 5% CO2. Cells were used at population doubling numbers less than 3. Eagle's Minimum Essential Medium was purchased from the American Type Culture Collection (Manassas, Va., USA), and osteoblast basal medium and osteoblast growth medium Supplemental Mix were purchased from PromoCell (Heidelberg, Germany). Methyl-thiazolyl-tetrazolium (MTT) dye solution was purchased from Promega (Madison, Wis., USA). 4′,6-diamidino-2-phenylindole (DAPI), and Atto Rho6G phalloidin were supplied by Sigma-Aldrich (St Louis, Mo., USA).
(§2) 100 μL of the osteosarcoma and healthy osteoblast cell suspensions were seeded on a 96-well plate at 2×10^3 cells/well (cell density 6,154 cells/cm^2). […] Cells treated with medium only were used as a […] control. […]
(§3) The cells were treated for 24 hours. […] Cell viability was expressed as the ratio of cell density in each sample to the cell density in the control sample.

MG-63 osteosarcoma cells [2] = assay: MTT cytotoxicity assay; conditions: osteosarcoma cell line, highest concentration investigated, 24 hours, serum-free medium
Method: as §1, §2, §3

[3] = Zeta potential measurement (ZS90 Nanosizer); assay type: physicochemical; conditions: deionized water
Method: The zeta potential of the nanoparticles was determined using 1 mL of each sample, each measured for ten preparations in triplicate.

Human dermal fibroblasts = conditions: 24 hours, MTS
Method: Human dermal fibroblasts (Lonza, CC-2511) were plated at a density of 10,000 cells/cm^2 in a 96-well plate and maintained in DMEM culture medium supplemented with 10% fetal bovine serum (FBS, Hyclone) and 1% penicillin/streptomycin (P/S, Hyclone). APNPs were added to the culture medium to achieve the indicated final concentration of C18GR7RGDS, and the cells were incubated for 24 hours prior to determination of cell density by MTS assay.

[4] = system: healthy human osteoblasts; assay: Cellular uptake of curcumin by bright field and confocal microscopy; assay type: cell-based; conditions: normal human osteoblast cells, 20 μM curcumin
Method: (§4) A confocal laser scanning microscope and a bright field microscope were used for a qualitative study of the cellular uptake of curcumin from curcumin-loaded APNPs. First, 1 mL each of the osteosarcoma cell line and the healthy human osteoblast cell line were seeded on a 24-well plate at a density of 2×10^4 cells/mL. […] The cells were then rinsed with phosphate-buffered saline three times to remove the unabsorbed curcumin. The qualitative uptake of curcumin was then monitored by bright field microscopy. In another study, the nuclei of the cells were tracked by blue fluorescent DAPI staining using confocal microscopy (FIGS. 8A-8F), and the F-actin filaments of cells were stained with red fluorescent Rhodamine 6G. After 10 minutes of fixation by 10% formaldehyde solution and subsequent treatment with a 0.1% Triton X-100 solution for 10 minutes, the cells were stained with DAPI and Atto Rho6G phalloidin and observed using a Zeiss LSM710 laser scanning confocal microscope.

MG-63 osteosarcoma cells [5] = assay: as above; assay type: cell-based, human; conditions: 20 μM curcumin
Method: as §4

[6] = background statement; cited from earlier work
[7] = Solubility of curcumin in water; assay type: physicochemical; conditions: thermodynamic from solid

## CCCCCCCCCCCCCCCCCC(=O)NCC(=O)N[C@@H](CCCNC(=N)N)C(=O)N[C@@H](CCCNC(=N)N)C(=O)N[C@@H](CCCNC(=N)N)C(=O)N[C@@H](CCCNC(=N)N)C(=O)N[C@@H](CCCNC(=N)N)C(=O)N[C@@H](CCCNC(=N)N)C(=O)N[C@@H](CCCNC(=N)N)C(=O)N[C@@H](CCCNC(=N)N)C(=O)NCC(=O)N[C@@H](CC(=O)O)C(=O)N[C@@H](CO)C(=O)O [pure C18GR7RGDS APNPs] (Stearoyl-GRRRRRRRRGDS-OH)
[1]
  cytotoxicity: minor cytotoxicity
MG-63 osteosarcoma cells [2]
  cytotoxicity: minor cytotoxicity
[3]
  stability in aqueous solution (indicated by zeta potential): stable in aqueous solution
Human dermal fibroblasts
  concentration resulting in significant loss of cell viability (reduced density of living cells): ≥ 40 µM

## COc1cc(/C=C/C(=O)CC(=O)/C=C/c2ccc(O)c(OC)c2)ccc1O [curcumin, diferuloylmethane]
[4]
  curcumin uptake, confocal fluorescence: neither cell line showed detectable fluorescence
[4]; 2 hours
  curcumin uptake, bright field microscopy: did not accumulate in the cytosol
MG-63 osteosarcoma cells [5]
  curcumin uptake, confocal fluorescence: neither cell line showed detectable fluorescence
MG-63 osteosarcoma cells [5]; 2 hours
  curcumin uptake, bright field microscopy: did not accumulate in the cytosol
[6]
  solubility in water: insoluble in water
[7]
  solubility: < 100 µg/mL
